Among the data in patent US12559529B2, “NPY2 receptor agonists” (Boehringer Ingelheim International GmbH, priority 2019, dated 2026) are Ki values, retold here.

One may read the Ki as a dissociation constant, usually derived from enzyme kinetics or from competition with a known ligand.

This assay addresses T1, Human Neuropeptide Y2 Receptor (Homo sapiens, UniProt P49146).
T1 construct: purchased CHEMICON HTS066M
T1 sequence (P49146 1-381): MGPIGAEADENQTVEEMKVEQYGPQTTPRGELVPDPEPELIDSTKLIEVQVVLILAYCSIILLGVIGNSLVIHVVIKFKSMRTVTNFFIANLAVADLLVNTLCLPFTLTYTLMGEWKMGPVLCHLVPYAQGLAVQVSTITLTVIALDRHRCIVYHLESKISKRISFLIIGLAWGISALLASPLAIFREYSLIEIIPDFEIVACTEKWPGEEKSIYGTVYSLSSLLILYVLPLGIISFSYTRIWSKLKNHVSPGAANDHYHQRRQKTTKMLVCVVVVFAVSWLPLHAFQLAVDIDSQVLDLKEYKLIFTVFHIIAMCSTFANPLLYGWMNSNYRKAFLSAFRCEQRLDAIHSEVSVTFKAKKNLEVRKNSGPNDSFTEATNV
As to the kind of experiment: Radioligand binding competition assay (RLB). The note with it: Table 3; human 125I-PYY (1-36) 0.02 nM, Y2 receptor membranes; read-out: Ki. The procedure, abridged: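 Competition binding on human Y2 receptor membranes, 0.5 μg protein/well, in 50 mM HEPES, 5 mM MgCl2, 1 mM CaCl2, pH 7.4, 0.2% ovalbumin; peptides diluted from 1 mM DMSO stocks.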

Structures are written as SMILES. *1 amine or outer side, *2 acyl side, *3 side chain or, on linkers, in order; H or OH if unused. Where a SMILES comes first, the peptide text is derived from it. Side-chain parts run from the residue outwards. The star is where a group is joined. C18 diacid = O=C(O)CCCCCCCCCCCCCCCCC(=O)*; γGlu = O=C(O)[C@H](CCC(=O)[*:2])N[*:1]; Isovaleryl = CC(C)CC(=O)*; AEEA = NCCOCCOCC(=O)O

Regarding `CC[C@H](C)[C@H](NC(=O)[C@H](CCC(=O)O)NC(=O)[C@H](CCC(=O)O)NC(=O)[C@@H]1CCCN1C(=O)[C@H](CO)NC(=O)[C@H](CO)NC(=O)[C@H](CC(=O)O)NC(=O)[C@H](CCC(=O)O)NC(=O)[C@H](CCC(=O)O)NC(=O)[C@@H]1CCCN1C(=O)[C@H](CCCCNC(=O)COCCOCCNC(=O)COCCOCCNC(=O)CC[C@H](NC(=O)CCCCCCCCCCCCCCCCC(=O)O)C(=O)O)NC(=O)[C@H](CCC(=O)O)NC(=O)[C@@H]1CCCN1C(=O)[C@H](C)NC(=O)CC(C)C)C(=O)N[C@@H](CCC(N)=O)C(=O)N[C@@H](CCCNC(=N)N)C(=O)N[C@@H](Cc1ccc(O)cc1)C(=O)N[C@@H](Cc1ccc(O)cc1)C(=O)N[C@H](C(=O)N[C@@H](CO)C(=O)N[C@@H](CC(C)C)C(=O)N[C@@H](CCCNC(=N)N)C(=O)N[C@@H](Cc1c[nH]cn1)C(=O)N[C@@H](Cc1ccc(O)cc1)C(=O)N[C@@H](Cc1ccc(O)cc1)C(=O)N[C@@H](CC(N)=O)C(=O)N[C@@H](Cc1c[nH]c2ccccc12)C(=O)N[C@@H](CC(C)C)C(=O)N[C@H](C(=O)N[C@@H](CCCNC(=N)N)C(=O)N[C@@H](CCC(N)=O)C(=O)N[C@@H](CCCNC(=N)N)C(=O)N[C@@H](Cc1ccc(O)cc1)C(N)=O)[C@@H](C)O)C(C)C` [Compound 145, N{alpha-4}-(3-methylbutanoyl)-N{epsilon-7}-[2-(2-{2-[2-(2-{2-[(4S)-4-carboxy-4-(17-carboxyheptadecanamido)butanamido]ethoxy}ethoxy)acetamido]ethoxy}ethoxy)acetamido]-[4A,7K,9E,12S,17I,18Q,22V,28Y,30W,31L]hPYY (4-36)], the Ki was 1.55 nM.

For `CC(C)CC(=O)N[C@@H](C)C(=O)N1CCC[C@H]1C(=O)N[C@@H](CCC(=O)O)C(=O)N[C@@H](CCCCNC(=O)COCCOCCNC(=O)COCCOCCNC(=O)CC[C@H](NC(=O)CCCCCCCCCCCCCCCCC(=O)O)C(=O)O)C(=O)N1CCC[C@H]1C(=O)N[C@@H](CCC(=O)O)C(=O)N[C@@H](CCC(=O)O)C(=O)N[C@@H](CCC(=O)O)C(=O)N[C@@H](C)C(=O)N[C@@H](CO)C(=O)N1CCC[C@H]1C(=O)N[C@@H](CCC(=O)O)C(=O)N[C@@H](CCC(=O)O)C(=O)N[C@@H](CC(C)C)C(=O)N[C@@H](CCC(N)=O)C(=O)N[C@@H](CCCNC(=N)N)C(=O)N[C@@H](Cc1ccc(O)cc1)C(=O)N[C@@H](Cc1ccc(O)cc1)C(=O)N[C@H](C(=O)N[C@@H](CO)C(=O)N[C@H](C(=O)N[C@@H](CCCNC(=N)N)C(=O)N[C@@H](Cc1c[nH]cn1)C(=O)N[C@@H](Cc1ccc(O)cc1)C(=O)N[C@@H](Cc1ccc(O)cc1)C(=O)N[C@@H](CC(N)=O)C(=O)N[C@@H](Cc1c[nH]c2ccccc12)C(=O)N[C@@H](CC(C)C)C(=O)N[C@H](C(=O)N[C@@H](CCCNC(=N)N)C(=O)N[C@@H](CCC(N)=O)C(=O)N[C@@H](CCCNC(=N)N)C(=O)N[C@@H](Cc1ccc(O)cc1)C(N)=O)[C@@H](C)O)[C@@H](C)O)C(C)C` [Compound 146, N{alpha-4}-(3-methylbutanoyl)-N{epsilon-7}-[2-(2-{2-[2-(2-{2-[(4S)-4-carboxy-4-(17-carboxyheptadecanamido)butanamido]ethoxy}ethoxy)acetamido]ethoxy}ethoxy)acetamido]-[4A,7K,9E,11E,18Q,22V,24T,28Y,30W,31L]hPYY (4-36)] (Isovaleryl-APEK([AEEA-AEEA-γGlu-C18 diacid])PEEEASPEELQRYYVSTRHYYNWLTRQRY-NH2), the inhibition constant Ki worked out at 5.05 nM.

As for `CC(C)CC(=O)N[C@@H](C)C(=O)N1CCC[C@H]1C(=O)N[C@@H](CCC(=O)O)C(=O)N[C@@H](CCCCNC(=O)COCCOCCNC(=O)COCCOCCNC(=O)CC[C@H](NC(=O)CCCCCCCCCCCCCCCCC(=O)O)C(=O)O)C(=O)N1CCC[C@H]1C(=O)N[C@@H](CCC(=O)O)C(=O)N[C@@H](CCC(=O)O)C(=O)N[C@@H](CC(=O)O)C(=O)N[C@@H](C)C(=O)N[C@@H](CO)C(=O)N1CCC[C@H]1C(=O)N[C@@H](CCC(=O)O)C(=O)N[C@@H](CCC(=O)O)C(=O)N[C@H](C(=O)N[C@@H](CCC(N)=O)C(=O)N[C@@H](CCCCN)C(=O)N[C@@H](Cc1ccc(O)cc1)C(=O)N[C@@H](Cc1ccc(O)cc1)C(=O)N[C@H](C(=O)N[C@@H](CO)C(=O)N[C@@H](CC(C)C)C(=O)N[C@@H](CCCNC(=N)N)C(=O)N[C@@H](Cc1c[nH]cn1)C(=O)N[C@@H](Cc1ccc(O)cc1)C(=O)N[C@@H](Cc1ccc(O)cc1)C(=O)N[C@@H](CC(N)=O)C(=O)N[C@@H](Cc1c[nH]c2ccccc12)C(=O)N[C@@H](CC(C)C)C(=O)N[C@H](C(=O)N[C@@H](CCCNC(=N)N)C(=O)N[C@@H](CCC(N)=O)C(=O)N[C@@H](CCCNC(=N)N)C(=O)N[C@@H](Cc1ccc(O)cc1)C(N)=O)[C@@H](C)O)C(C)C)[C@@H](C)O` [Compound 147, N{alpha-4}-(3-methylbutanoyl)-N{epsilon-7}-[2-(2-{2-[2-(2-{2-[(4S)-4-carboxy-4-(17-carboxyheptadecanamido)butanamido]ethoxy}ethoxy)acetamido]ethoxy}ethoxy)acetamido]-[4A,7K,9E,17T,18Q,19K,22V,28Y,30W,31L]hPYY (4-36)], the inhibitory constant (Ki) was found to be 1.19 nM.

With `CC(C)CC(=O)N[C@@H](C)C(=O)N1CCC[C@H]1C(=O)N[C@@H](CCC(=O)O)C(=O)N[C@@H](CCCCNC(=O)COCCOCCNC(=O)COCCOCCNC(=O)CC[C@H](NC(=O)CCCCCCCCCCCCCCCCC(=O)O)C(=O)O)C(=O)N1CCC[C@H]1C(=O)N[C@@H](CCC(=O)O)C(=O)N[C@@H](CCC(=O)O)C(=O)N[C@@H](C)C(=O)N[C@@H](C)C(=O)N[C@@H](CO)C(=O)N1CCC[C@H]1C(=O)N[C@@H](CCC(=O)O)C(=O)N[C@@H](CCC(=O)O)C(=O)N[C@@H](CC(C)C)C(=O)N[C@@H](CCC(N)=O)C(=O)N[C@@H](CCCNC(=N)N)C(=O)N[C@@H](Cc1ccc(O)cc1)C(=O)N[C@@H](Cc1ccc(O)cc1)C(=O)N[C@H](C(=O)N[C@@H](CCC(=O)O)C(=O)N[C@@H](CC(C)C)C(=O)N[C@@H](CCCNC(=N)N)C(=O)N[C@@H](Cc1c[nH]cn1)C(=O)N[C@@H](Cc1ccc(O)cc1)C(=O)N[C@@H](Cc1ccc(O)cc1)C(=O)N[C@@H](CC(N)=O)C(=O)N[C@@H](Cc1c[nH]c2ccccc12)C(=O)N[C@@H](CC(C)C)C(=O)N[C@H](C(=O)N[C@@H](CCCNC(=N)N)C(=O)N[C@@H](CCC(N)=O)C(=O)N[C@@H](CCCNC(=N)N)C(=O)N[C@@H](Cc1ccc(O)cc1)C(N)=O)[C@@H](C)O)C(C)C` [Compound 149, N{alpha-4}-(3-methylbutanoyl)-N{epsilon-7}-[2-(2-{2-[2-(2-{2-[(4S)-4-carboxy-4-(17-carboxyheptadecanamido)butanamido]ethoxy}ethoxy)acetamido]ethoxy}ethoxy)acetamido]-[4A,7K,9E,11A,18Q,22V,23E,28Y,30W,31L]hPYY (4-36)], the Ki came out at 2.75 nM.

Turning to `CC[C@H](C)[C@H](NC(=O)[C@H](CCC(=O)O)NC(=O)[C@H](CCC(=O)O)NC(=O)[C@@H]1CCCN1C(=O)[C@H](CO)NC(=O)[C@H](C)NC(=O)[C@H](CC(=O)O)NC(=O)[C@H](CCC(=O)O)NC(=O)[C@H](CCC(=O)O)NC(=O)[C@H](C)NC(=O)[C@H](CCCCNC(=O)COCCOCCNC(=O)COCCOCCNC(=O)CC[C@H](NC(=O)CCCCCCCCCCCCCCCCC(=O)O)C(=O)O)NC(=O)[C@H](CCC(=O)O)NC(=O)[C@@H]1CCCN1C(=O)[C@H](C)NC(=O)CC(C)C)C(=O)N[C@@H](CCC(N)=O)C(=O)N[C@@H](CCCNC(=N)N)C(=O)N[C@@H](Cc1ccc(O)cc1)C(=O)N[C@@H](Cc1ccc(O)cc1)C(=O)N[C@H](C(=O)N[C@@H](CO)C(=O)N[C@@H](CC(C)C)C(=O)N[C@@H](CCCNC(=N)N)C(=O)N[C@@H](Cc1c[nH]cn1)C(=O)N[C@@H](Cc1ccc(O)cc1)C(=O)N[C@@H](Cc1ccc(O)cc1)C(=O)N[C@@H](CC(N)=O)C(=O)N[C@@H](Cc1c[nH]c2ccccc12)C(=O)N[C@@H](CC(C)C)C(=O)N[C@H](C(=O)N[C@@H](CCCNC(=N)N)C(=O)N[C@@H](CCC(N)=O)C(=O)N[C@@H](CCCNC(=N)N)C(=O)N[C@@H](Cc1ccc(O)cc1)C(N)=O)[C@@H](C)O)C(C)C` [Compound 152, N{alpha-4}-(3-methylbutanoyl)-N{epsilon-7}-[2-(2-{2-[2-(2-{2-[(4S)-4-carboxy-4-(17-carboxyheptadecanamido)butanamido]ethoxy}ethoxy)acetamido]ethoxy}ethoxy)acetamido]-[4A,7K,8A,9E,17I,18Q,22V,28Y,30W,31L]hPYY (4-36)], the Ki was 5.18 nM.
